Test results as given in ChEMBL document CHEMBL5528028, “Discovery of benzopyridone cyanoacetates as new type of potential broad-spectrum antibacterial candidates” (Eur J Med Chem, 2024).
≈ marks a conversion by molar mass, not a printed value.

Assays:
Format in all cases: functional
[1] = tested on: Staphylococcus aureus; assay: Antibacterial activity against Staphylococcus aureus ATCC 25923 assessed growth inhibition by micro broth dilution method
[2] = tested on: Pseudomonas aeruginosa; assay: Antibacterial activity against Pseudomonas aeruginosa ATCC 27853 assessed growth inhibition by micro broth dilution method
[3] = tested on: Pseudomonas aeruginosa; assay: Antibacterial activity against Pseudomonas aeruginosa assessed growth inhibition by micro broth dilution method
[4] = tested on: Escherichia coli; assay: Antibacterial activity against Escherichia coli assessed growth inhibition by micro broth dilution method
[5] = tested on: Staphylococcus aureus; assay: Antibacterial activity against methicillin-resistant Staphylococcus aureus assessed growth inhibition by micro broth dilution method
[6] = tested on: Enterococcus faecalis; assay: Antibacterial activity against Enterococcus faecalis assessed growth inhibition by micro broth dilution method
[7] = tested on: Escherichia coli; assay: Antibacterial activity against Escherichia coli ATCC 25922 assessed growth inhibition by micro broth dilution method
[8] = tested on: Staphylococcus aureus; assay: Antibacterial activity against Staphylococcus aureus ATCC 29213 assessed growth inhibition by micro broth dilution method
[9] = tested on: Staphylococcus aureus; assay: Antibacterial activity against Staphylococcus aureus assessed growth inhibition by micro broth dilution method
[10] = tested on: Acinetobacter baumannii; assay: Antibacterial activity against Acinetobacter baumannii assessed growth inhibition by micro broth dilution method
[11] = tested on: Klebsiella pneumoniae; assay: Antibacterial activity against Klebsiella pneumonia assessed growth inhibition by micro broth dilution method

Row | SMILES | MIC [1] [µg/mL] | MIC [2] [µg/mL] | MIC [3] [µg/mL] | MIC [4] [µg/mL] | MIC [5] [µg/mL] | MIC [6] [µg/mL] | MIC [7] [µg/mL] | MIC [8] [µg/mL] | MIC [9] [µg/mL] | MIC [10] [µg/mL] | MIC [11] [µg/mL]
1 | CCOC(=O)c1cn(CC)c2c(F)c([C-](C#N)C(=O)OCC)c(F)cc2c1=O.[Na+] (configuration not stated) | 16 | 16 | 64 | 64 | 32 | 32 | 1 | 16 | 16 | 32 | 16
2 | CCOC(=O)c1cn(Cc2ccccc2Cl)c2cc(F)c(F)cc2c1=O | 256 (≈ 678 µM) | 256 (≈ 678 µM) | 256 (≈ 678 µM) | 2 (≈ 5.29 µM) | 256 (≈ 678 µM) | 4 (≈ 10.6 µM) | 128 (≈ 339 µM) | 256 (≈ 678 µM) | 128 (≈ 339 µM) | 32 (≈ 84.7 µM) | 32 (≈ 84.7 µM)
3 | CCCCCCCCn1cc(C(=O)O)c(=O)c2cc(F)c(C(C#N)C(=O)OCC)cc21 (configuration not stated) | 1 (≈ 2.32 µM) | 1 (≈ 2.32 µM) | 4 (≈ 9.29 µM) | 32 (≈ 74.3 µM) | 8 (≈ 18.6 µM) | 16 (≈ 37.2 µM) | 0.5 (≈ 1.16 µM) | 4 (≈ 9.29 µM) | 4 (≈ 9.29 µM) | 1 (≈ 2.32 µM) | 0.25 (≈ 0.581 µM)
4 | CCOC(=O)c1cn(Cc2ccc(Cl)cc2Cl)c2cc(F)c(F)cc2c1=O | 256 (≈ 621 µM) | 256 (≈ 621 µM) | 128 (≈ 311 µM) | 16 (≈ 38.8 µM) | 256 (≈ 621 µM) | 256 (≈ 621 µM) | 32 (≈ 77.6 µM) | 256 (≈ 621 µM) | 128 (≈ 311 µM) | 256 (≈ 621 µM) | 0.5 (≈ 1.21 µM)
5 | CCOC(=O)c1cn(CC2CC2)c2cc([C-](C#N)C(=O)OCC)c(F)cc2c1=O.[Na+] (configuration not stated) | 4 | 8 | 16 | 16 | 64 | 64 | 4 | 16 | 64 | 16 | 16
6 | CCOC(=O)c1cn(Cc2cnc(Cl)s2)c2cc(F)c(F)cc2c1=O | 4 (≈ 10.4 µM) | 16 (≈ 41.6 µM) | 64 (≈ 166 µM) | 8 (≈ 20.8 µM) | 32 (≈ 83.2 µM) | 32 (≈ 83.2 µM) | 32 (≈ 83.2 µM) | 32 (≈ 83.2 µM) | 256 (≈ 665 µM) | 32 (≈ 83.2 µM) | 64 (≈ 166 µM)
7 | CCOC(=O)c1cn(Cc2ccc(Cl)c(Cl)c2)c2cc(C(C#N)C(=O)OCC)c(F)cc2c1=O (configuration not stated) | 1 (≈ 1.98 µM) | 2 (≈ 3.96 µM) | 0.5 (≈ 0.989 µM) | 8 (≈ 15.8 µM) | 8 (≈ 15.8 µM) | 16 (≈ 31.7 µM) | 4 (≈ 7.92 µM) | 0.25 (≈ 0.495 µM) | 4 (≈ 7.92 µM) | 2 (≈ 3.96 µM) | 1 (≈ 1.98 µM)
